The record followed here is ChEMBL document CHEMBL4152278 (Eur J Med Chem, 2018).

For this experiment, the system named is Influenza A virus. Description: Antiviral activity against Influenza A virus (A/WSN/1933(H1N1)) infected in MDCK cells expressing neuraminidase H275Y mutant assessed as protection against virus-induced cytopathic effect after 48 hrs by CellTiter96 aqueous non-radioactive cell proliferation assay. The format is functional, organism-based. Background: Damage to the host cells serves as the signal in cytopathic effect assays.

With `CCC(CC)O[C@@H]1C=C(C(=O)O)C[C@H](N/C(N)=N/C(=O)[C@@H](C)c2ccc3cc(OC)ccc3c2)[C@H]1NC(C)=O`, the EC50 came to 19 µM. Next, `CCCCCCCC(=O)/N=C(\N)N[C@H]1C=C(C(=O)O)O[C@@H]([C@H](O)[C@H](O)CO)[C@@H]1NC(C)=O`: 0.48 µM; `COc1ccc2cc([C@H](C)C(=O)/N=C(\N)N[C@H]3C=C(C(=O)O)O[C@@H]([C@H](O)[C@H](O)CO)[C@@H]3NC(C)=O)ccc2c1`: 0.9 µM; `CCCCCCCC(=O)/N=C(\N)N[C@H]1CC(C(=O)O)=C[C@@H](OC(CC)CC)[C@@H]1NC(C)=O`: 6.6 µM. The same measure for `CCC(CC)O[C@@H]1C=C(C(=O)O)C[C@H](NC(=N)N)[C@H]1NC(C)=O`: 2.1 µM. The same measure for `CCC(CC)O[C@@H]1C=C(C(=O)O)C[C@H](N)[C@H]1NC(C)=O` [OSELTAMIVIR CARBOXYLATE]: 26 µM; for `CC(=O)N[C@H]1[C@H]([C@H](O)[C@H](O)CO)OC(C(=O)O)=C[C@@H]1NC(=N)N` [ZANAMIVIR]: 0.15 µM.

The term EC50 denotes the concentration at which the effect is half-maximal.
